Here are results for 15 molecules from patent US12448394B2, “Heterocyclic pyrazole derivatives as type III receptor tyrosine kinase inhibitors” (DEVELOPMENT CENTER FOR BIOTECHNOLOGY, priority 2019, dated 2025).

Numbering of substitutions follows the chain as printed.

The target in experiment [1] is T1, FLT3 kinase (Homo sapiens, UniProt P36888).
T1 construct: purchased SignalChem
T1 sequence (P36888 27-993): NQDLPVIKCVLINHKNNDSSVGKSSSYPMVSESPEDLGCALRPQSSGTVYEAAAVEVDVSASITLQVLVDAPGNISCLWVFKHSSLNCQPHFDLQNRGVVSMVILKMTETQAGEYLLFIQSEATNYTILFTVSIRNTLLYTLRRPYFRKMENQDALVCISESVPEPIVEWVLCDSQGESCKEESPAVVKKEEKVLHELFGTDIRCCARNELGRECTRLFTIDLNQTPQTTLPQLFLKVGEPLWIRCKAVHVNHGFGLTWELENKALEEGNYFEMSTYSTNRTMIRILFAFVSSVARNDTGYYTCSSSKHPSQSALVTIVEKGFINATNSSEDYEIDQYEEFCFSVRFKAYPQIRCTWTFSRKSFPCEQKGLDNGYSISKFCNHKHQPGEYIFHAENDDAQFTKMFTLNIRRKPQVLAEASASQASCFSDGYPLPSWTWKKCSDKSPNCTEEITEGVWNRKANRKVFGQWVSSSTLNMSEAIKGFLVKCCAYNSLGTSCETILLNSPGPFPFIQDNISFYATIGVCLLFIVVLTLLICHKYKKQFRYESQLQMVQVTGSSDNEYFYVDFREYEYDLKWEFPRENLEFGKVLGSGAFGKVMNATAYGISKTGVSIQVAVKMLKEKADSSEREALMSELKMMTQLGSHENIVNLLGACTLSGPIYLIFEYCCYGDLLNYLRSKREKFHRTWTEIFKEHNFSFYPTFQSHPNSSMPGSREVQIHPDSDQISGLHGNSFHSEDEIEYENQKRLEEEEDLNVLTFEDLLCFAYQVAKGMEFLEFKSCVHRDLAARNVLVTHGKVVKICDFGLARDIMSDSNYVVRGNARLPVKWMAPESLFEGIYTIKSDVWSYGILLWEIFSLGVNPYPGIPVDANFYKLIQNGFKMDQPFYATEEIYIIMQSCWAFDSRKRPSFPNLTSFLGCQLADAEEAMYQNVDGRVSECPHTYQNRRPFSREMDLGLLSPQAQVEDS
In words: FLT3 kinase assay (AlphaScreen). It is filed as biochemical. The conditions noted are these: read-out: Ranking of IC50 values, FLT3. The protocol: (§1) Inhibition of FLT3 kinase activity by a test compound disclosed herein was estimated by AlphaScreen (PerkinElmer, Akron, Ohio, USA). Standard assay conditions were 1.5 ng of recombinant FLT3 kinase (SignalChem, Richmond, BC, Canada) with 6 ng Biotin-conjugated Poly-(Glu 4: Tyr 1) (Cisbio, Bedford, MA, USA) in the assay buffer (10 μM ATP, 10 mM MOPs, pH7.0, 0.21 mM EDTA, 0.5% glycerol, 1 mg/mL BSA, 0.01% 2-mercaptoethanol, 0.001% Brij35, 10 mM MgCl2) in a final volume of 25 μL. Reactions were incubated at 30° C. for 30 min and stopped by adding 5 μL of 50 mM EDTA. Analysis of resulting product using an AlphaScreen kit and counted with Enspire Alpha (PerkinElmer, Waltham, MA, USA). […] The IC50 values of inhibitors were determined after carrying out assays with each compound at serially diluted concentrations in duplication. The results were analyzed using linear regression software (GraphPad Prism 5; GraphPad Software Inc.)
(In general: Alpha assays give light when donor and acceptor beads are brought close together.)

Experiment [2] deals with T2, FLT3-D835Y mutant kinase (Homo sapiens, UniProt P36888, D835Y).
T2 construct: purchased SignalChem
T2 sequence (P36888 27-993 D835Y): T1 sequence (P36888 27-993) with D809Y
In words: FLT3-D835Y mutant kinase assay (AlphaScreen). It is filed as biochemical. The conditions noted are these: read-out: Ranking of IC50 values, FLT3-D835Y. The protocol:
as §1, with “FLT3-D835Y mutant” for “FLT3”, “(PerkinElmer).” for “(PerkinElmer, Akron, Ohio, USA).”, “1” for “1.5”, “(SignalChem)” for “(SignalChem, Richmond, BC, Canada)”, “(Cisbio)” for “(Cisbio, Bedford, MA, USA)”, “(PerkinElmer).” for “(PerkinElmer, Waltham, MA, USA).”

Turning to `CN1CCN(Cc2cccc(-c3cc4c(s3)Cc3c(-c5ccc6cnn(C)c6c5)n[nH]c3-4)c2)CC1` [Compound 14, 3-(1-methyl-1H-indazol-6-yl)-6-(3-((4-methylpiperazin-1-yl)methyl)phenyl)-1,4-dihydrothieno [2′,3′:4,5]cyclopenta[1,2-c] pyrazole], the IC50 in experiment [1] and in experiment [2] was 1 to 10 nM each time.
Consider `Cn1ncc2ccc(-c3n[nH]c4c3Cc3sc(-c5ccc(CN6CCCC6=O)cc5)cc3-4)cc21` [Compound 64, 1-(4-(3-(1-methyl-1H-indazol-6-yl)-1,4-dihydro-thieno[2′,3′:4,5]cyclopenta [1,2-c]pyrazol-6-yl)benzyl)pyrrolidin-2-one], for which the IC50 in experiment [1] and in experiment [2] was 1 to 10 nM each time.
For the molecule `Cn1ncc2ccc(-c3n[nH]c4c3Cc3sc(-c5cc(F)c(CN6CCOCC6)c(F)c5)cc3-4)cc21` [Compound 53, 4-(2,6-difluoro-4-(3-(1-methyl-1H-indazol-6-yl)-1,4-dihydrothieno [2′,3′:4,5]cyclopenta [1,2-c]pyrazol-6-yl)benzyl)morpholine], the IC50 (commonly the concentration needed to halve the response being measured) in experiment [1] is under 1 nM; in experiment [2], 1 to 10 nM.
As for `COc1cc(-c2cc3c(s2)Cc2c(-c4ccc5cnn(C)c5c4)n[nH]c2-3)ccc1CN1CCOCC1` [Compound 24, 4-(2-methoxy-4-(3-(1-methyl-1H-indazol-6-yl)-1,4-dihydrothieno[2′,3′:4,5]cyclopenta[1,2-c]pyrazol-6-yl)benzyl)morpholine], the IC50 in experiment [1] and in experiment [2] was under 1 nM in each case.
As to `Cn1ncc2ccc(-c3n[nH]c4c3Cc3sc(-c5ccc(OCCN6CCOCC6)cc5)cc3-4)cc21` [Compound 69, 4-(2-(4-(3-(1-methyl-1H-indazol-6-yl)-1,4-dihydro-thieno[2′,3′:4,5]cyclopenta [1,2-c]pyrazol-6-yl)phenoxy)ethyl)morpholine], the IC50 in experiment [1] and in experiment [2] was under 1 nM throughout.
Consider `COc1cc(-c2cc3c(s2)Cc2c(-c4ccc5cnn(C)c5c4)n[nH]c2-3)ccc1C(=O)N1CCOCC1` [Compound 43, (2-methoxy-4-(3-(1-methyl-1H-indazol-6-yl)-1,4-dihydrothieno [2′,3′:4,5]cyclopenta [1,2-c]pyrazol-6-yl)phenyl)(morpholino) methanone], for which the IC50 in experiment [1] and in experiment [2] was 1 to 10 nM throughout.
As to `Cn1ncc2ccc(-c3n[nH]c4c3Cc3sc(-c5ccc(CN6CCOCC6)s5)cc3-4)cc21` [Compound 51, 4-((5-(3-(1-methyl-1H-indazol-6-yl)-1,4-dihydro-thieno[2′,3′:4,5]cyclopenta [1,2-c]pyrazol-6-yl)thiophen-2-yl)methyl) morpholine], the concentration for half-maximal inhibition (IC50) in experiment [1] and in experiment [2] was under 1 nM each time.
With `C[C@H]1COCCN1Cc1ccc(-c2cc3c(s2)Cc2c(-c4ccc5cnn(C)c5c4)n[nH]c2-3)cc1` [Compound 75, (S)-3-methyl-4-(4-(3-(1-methyl-1H-indazol-6-yl)-1,4-dihydrothieno [2′,3′:4,5]cyclopenta [1,2-c]pyrazol-6-yl)benzyl)morpholine], the IC50 in experiment [1] and in experiment [2] was under 1 nM throughout.
Take `C[C@@H]1CN(Cc2ccc(-c3cc4c(s3)Cc3c(-c5ccc6cn[nH]c6c5)n[nH]c3-4)cn2)C[C@H](C)O1` [Compound 16, (2R,6S)-4-((5-(3-(1H-indazol-6-yl)-1,4-dihydro-thieno[2′,3′:4,5]cyclopenta [1,2-c]pyrazol-6-yl)pyridin-2-yl)methyl)-2,6-dimethylmorpholine]: the IC50 in experiment [1] and in experiment [2] was under 1 nM in each case.
For the molecule `Cn1ncc2ccc(-c3n[nH]c4c3Cc3sc(-c5ccc(CN6CCC(F)(F)C6)cc5)cc3-4)cc21` [Compound 67, 6-(4-((3,3-difluoro-pyrrolidin-1-yl)methyl)phenyl)-3-(1-methyl-1H-indazol-6-yl)-1,4-dihydro-thieno[2′,3′:4,5]cyclopenta [1,2-c]pyrazole], the IC50 in experiment [1] and in experiment [2] was 1 to 10 nM in each case.
For the molecule `COC1CN(Cc2ccc(-c3cc4c(s3)Cc3c(-c5ccc6cnn(C)c6c5)n[nH]c3-4)cc2)C1` [Compound 105, 6-(4-((3-methoxyazeti-din-1-yl)methyl)phenyl)-3-(1-methyl-1H-indazol-6-yl)-1,4-dihydrothieno [2′,3′:4,5]cyclopenta [1,2-c]pyrazole], the IC50 in experiment [1] and in experiment [2] was under 1 nM throughout.
Regarding `CN(C)c1ccc(-c2cc3c(s2)Cc2c(-c4ccc5cnn(C)c5c4)n[nH]c2-3)cn1` [Compound 5, N,N-dimethyl-5-(3-(1-methyl-1H-indazol-6-yl)-1,4-dihydrothieno [2′,3′:4,5]cyclopenta[1,2-c]pyrazol-6-yl)pyridin-2-amine], the IC50 in experiment [1] and in experiment [2] was 1 to 10 nM each time.
In the case of `Cn1ncc2ccc(-c3n[nH]c4c3Cc3sc(N5CCOCC5)cc3-4)cc21` [Compound 78, 4-(3-(1-methyl-1H-indazol-6-yl)-1,4-dihydro-thieno[2′,3′:4,5]cyclopenta [1,2-c]pyrazol-6-yl) morpholine], the IC50 in experiment [1] and in experiment [2] was under 1 nM throughout.
Take `Cn1ncc2ccc(-c3n[nH]c4c3Cc3sc(-c5ccc(CC6CCOCC6)cc5)cc3-4)cc21` [Compound 77, 3-(1-methyl-1H-indazol-6-yl)-6-(4-((tetrahydro-2H-pyran-4-yl)methyl)phenyl)-1,4-dihydrothieno [2′,3′:4,5]cyclopenta [1,2-c]pyrazole]: the IC50 in experiment [1] and in experiment [2] was 1 to 10 nM each time.
With `C[C@@H]1COCCN1Cc1ccc(-c2cc3c(s2)Cc2c(-c4ccc5cnn(C)c5c4)n[nH]c2-3)cc1` [Compound 74, (R)-3-methyl-4-(4-(3-(1-methyl-1H-indazol-6-yl)-1,4-dihydrothieno [2′,3′:4,5]cyclopenta [1,2-c]pyrazol-6-yl)benzyl)morpholine], the IC50 in experiment [1] and in experiment [2] was under 1 nM throughout.
